Experimental data from patent EP0700399B1, “36-DERIVATIVES OF RIFAMYCINS AND THEIR USE AS ANTIMICROBIAL AGENTS” (GRUPPO LEPETIT S.P.A., priority 1993, dated 1994).
Where two headings read alike, the source gives them in different places.

Key:
Staphylococcus aureus = assay: MIC by broth microdilution; type: cell-based; details: Staphylococcus aureus; internal code L165; read-out: MIC of the compounds
Staph. aureus rifa-r^(1) = assay: MIC by broth microdilution; type: cell-based; details: Staphylococcus aureus, read-out: MIC of the compounds
Staph. aureus rifa-r^(2) = assay: MIC by broth microdilution; type: cell-based; details: Staphylococcus aureus, read-out: MIC of the compounds
Staph. aureus Smith = assay: MIC by broth microdilution; type: cell-based; details: Staphylococcus aureus; internal code L819; read-out: MIC of the compounds
[1] = test system: Staph. epidermidis ATCC 12228; assay: MIC by broth microdilution; type: cell-based; details: Staphylococcus epidermidis, ATCC12228; internal code L147; read-out: MIC of the compounds
[2] = test system: Staph. haemolyticus rifa-r^(2); assay: MIC by broth microdilution; type: cell-based; details: Staphylococcus haemolyticus, read-out: MIC of the compounds
Streptococcus pyogenes = assay: MIC by broth microdilution; type: cell-based; details: Streptococcus pyogenes; internal code L49; read-out: MIC of the compounds
Strept. pneumoniae = assay: MIC by broth microdilution; type: cell-based; details: Streptococcus pneumoniae; internal code L44; read-out: MIC of the compounds
[3] = test system: Enterococc. faecalis ATCC 7080; assay: MIC by broth microdilution; type: cell-based, Enterococcus faecalis; details: Enterococcus faecalis, ATCC7080; internal code L149; read-out: MIC of the compounds
[4] = test system: Propionibact. acnes ATCC 6919; assay: MIC by broth microdilution; type: cell-based, Propionibacterium acnes; details: Cutibacterium acnes, ATCC6919; internal code L1014; anaerobic, 48 hours; read-out: MIC of the compounds
[5] = test system: Bacteroides fragilis ATCC 25285; assay: MIC by broth microdilution; type: cell-based; details: Bacteroides fragilis, ATCC25285; internal code L1011; anaerobic, 48 hours; read-out: MIC of the compounds
Neisseria gonorrhoeae = assay: MIC by broth microdilution; type: cell-based; details: Neisseria gonorrhoeae; internal code L997; 5% carbon dioxide, 48 hours; read-out: MIC of the compounds
[6] = test system: Haemoph. influenzae ATCC 19418; assay: MIC by broth microdilution; type: cell-based, Haemophilus influenzae; details: Haemophilus influenzae, ATCC19418; internal code L970; 5% carbon dioxide, 48 hours; read-out: MIC of the compounds
Escherichia coli = assay: MIC by broth microdilution; type: cell-based; details: Escherichia coli; internal code L47; read-out: MIC of the compounds
[7] = test system: Proteus vulgaris ATCC 881; assay: MIC by broth microdilution; type: cell-based; details: Proteus vulgaris, ATCC881; internal code L79; read-out: MIC of the compounds
[8] = test system: Pseudomonas aerug. ATCC10145; assay: MIC by broth microdilution; type: cell-based, Pseudomonas aeruginosa; details: Pseudomonas, ATCC10145; internal code L4; read-out: MIC of the compounds
[9] = test system: Staphylococcus aureus Smith (Int. code L 819); assay: Experimental septicemia in mice; type: in vivo; details: Staphylococcus aureus, 168 h, treated once immediately after infection, survival on the 7th day
Description: Some compounds of the invention were also tested in experimental septicemia in mice infected with Staphylococcus aureus Smith (Int. code L 819). For this purpose, groups of five mice were infected intraperitoneally with about 1 x 10^6 CFU of S. aureus Smith suspended in 0.5 ml of Difco bacteriological mucin. Untreated animals died within 48 hours. The other animals were treated once immediately after infection. On the 7th day the value of ED50 (expressed in mg/kg) was calculated by the method of Spearman-[…]., Statistical method in biological assay, page 254, C. Griffin Ltd., London, 1952), on the basis of the percentage of animals surviving at each dose.

[10] = intravenous, read-out: ED50 IV route
[11] = sc, subcutaneous, read-out: ED50 SC route

SMILES	MIC (Staphylococcus aureus) [µg/mL]	MIC (Staph. aureus rifa-r^(1)) [µg/mL]	MIC (Staph. aureus rifa-r^(2)) [µg/mL]	MIC (Staph. aureus Smith) [µg/mL]	MIC [1] [µg/mL]	MIC [2] [µg/mL]	MIC (Streptococcus pyogenes) [µg/mL]	MIC (Strept. pneumoniae) [µg/mL]	MIC [3] [µg/mL]	MIC [4] [µg/mL]	MIC [5] [µg/mL]	MIC (Neisseria gonorrhoeae) [µg/mL]	MIC [6] [µg/mL]	MIC (Escherichia coli) [µg/mL]	MIC [7] [µg/mL]	MIC [8] [µg/mL]	ED50 [9, 10] [mg/kg]	ED50 [9, 11] [mg/kg]
CCn1cc(C(=O)OCC(=O)O[C@H]2[C@H](C)[C@H](O)[C@H](C)[C@@H](O)[C@@H](C)/C=C/C=C(/C)C(=O)Nc3c(C=NN4CCN(C5CCCC5)CC4)c(O)c4c5c(c(C)c(O)c4c3O)O[C@](C)(O/C=C/[C@H](OC)[C@H]2C)C5=O)c(=O)c2cc(F)c(N3CCN(C)CC3)cc21 [Compound C26, 3-[[(4-Cyclopentyl-1-piperazinyl)-imino]methyl}-36-{[1-ethyl-6-fluoro-1,4-dihydro-7-(4-methyl-1-piperazinyl)-4-oxo-3-quinolinyl]carbonyloxy}-rifamycin SV]	0.06	0.13	2	0.13	0.06	0.5	0.03	0.03	4	0.13	1	0.13	1	2	2	32	0.95	1.6
CCn1cc(C(=O)OCC(=O)O[C@H]2[C@H](C)[C@H](O)[C@H](C)[C@@H](O)[C@@H](C)/C=C/C=C(/C)C(=O)Nc3c(C=NN4CCN(C)CC4)c(O)c4c5c(c(C)c(O)c4c3O)O[C@](C)(O/C=C/[C@H](OC)[C@H]2C)C5=O)c(=O)c2cnc(N3CCN(C)CC3)nc21 [Compound C28]	0.06	0.13	2	0.06	0.06	4	0.016	0.008	8	0.06	1	0.25	2	64	64	128		
CO[C@H]1/C=C/O[C@@]2(C)Oc3c(C)c(O)c4c(O)c(c(C=NN5CCN(C)CC5)c(O)c4c3C2=O)NC(=O)/C(C)=C\C=C\[C@H](C)[C@H](O)[C@@H](C)[C@@H](O)[C@@H](C)[C@H](OC(=O)COC(=O)c2cn(C3CC3)c3cc(-c4cc(C)nc(C)c4)c(F)cc3c2=O)[C@@H]1C [Compound C29, 36-{[1-Cyclopropyl-6-fluoro-1,4-dihydre-7-(2,6-dimethyl-4-pyridinyl)-4-oxo-3-quinolinyl]-carbonyloxy}-3-{[(4-methyl-1-piperazinyl)imino]-methyl}rifamycin SV]	0.03	0.5	2	0.03	0.03	8	0.016	0.016	2	0.06	0.13	0.25	0.25	16	128	> 128		
CCn1cc(C(=O)OCC(=O)O[C@H]2[C@H](C)[C@H](O)[C@H](C)[C@@H](O)[C@@H](C)/C=C/C=C(/C)C(=O)Nc3c(C=NN4CCN(C)CC4)c(O)c4c5c(c(C)c(O)c4c3O)O[C@](C)(O/C=C/[C@H](OC)[C@H]2C)C5=O)c(=O)cc1N1CCN(C)CC1 [Compound C30, 36-{[1-Ethyl-1,4-dihydro-6-(4-methyl-1-piperazinyl)-4-oxo-3-pyridinyl]carbonyloxy]-3-{[(4-methyl-1-piperazinyl)imino]methyl}rifamycin SV]	0.016	0.5	1	0.016	0.016	4	0.016	0.008	0.25	0.03	0.06	0.13	1	16	16	32	0.72	1.6
